Experimental data: patent publication US12371454B2, “Cyclic peptide compound having Kras inhibitory action” (priority 2019, dated 2025)
Positions of bridges follow the written chain, without caps; N, C: chain ends. Non-standard residues stand in square brackets, D forms with d. Residues, ends and D or L forms follow the SMILES beside them. *: point of attachment. hPhe(3,5-F2-4-CF3) = N[C@@H](CCc1cc(F)c(C(F)(F)F)c(F)c1)C(=O)O; hPhe(3-Cl-4-CF3) = N[C@@H](CCc1ccc(C(F)(F)F)c(Cl)c1)C(=O)O; NMePhe(4-CF3) = CN[C@@H](Cc1ccc(C(F)(F)F)cc1)C(=O)O; Piperazinyl(4-(3-oxetanyl)) = C1OCC1N1CCN(*)CC1; 3Oxa8azabicyclo(3.2.1)octane = C1CC2COCC1N2*; NMeAbu(4,4,4-F3) = CN[C@@H](CC(F)(F)F)C(=O)O; Phe(2,6-F2) = N[C@@H](Cc1c(F)cccc1F)C(=O)O; NMeAla(cPent) = CN[C@@H](CC1CCCC1)C(=O)O; Phe(3-I) = N[C@@H](Cc1cccc(I)c1)C(=O)O; Pro(4,4-F2) = O=C(O)[C@@H]1CC(F)(F)CN1; NMeY = CN[C@@H](Cc1ccc(O)cc1)C(=O)O; NMeCha = CN[C@@H](CC1CCCCC1)C(=O)O; NMeChg = CN[C@H](C(=O)O)C1CCCCC1; NMeF = CN[C@@H](Cc1ccccc1)C(=O)O; NMeI = CC[C@H](C)[C@H](NC)C(=O)O; NMeD = CN[C@@H](CC(=O)O)C(=O)O; NMeL = CN[C@@H](CC(C)C)C(=O)O; d(β3hP) = O=C(O)C[C@H]1CCCN1; NMeAbu = CC[C@H](NC)C(=O)O; Morpholide = C1CN(*)CCO1; NMeA = CN[C@@H](C)C(=O)O; NMeAib = CNC(C)(C)C(=O)O; Nle = CCCC[C@H](N)C(=O)O; Piperidide = C1CCN(*)CC1; Pra = C#CC[C@H](N)C(=O)O; Pyrrolidide = C1CCN(*)C1; Ac5c = NC1(C(=O)O)CCCC1; Aze = O=C(O)[C@@H]1CCN1; Ac4c = NC1(C(=O)O)CCC1; Sar = CNCC(=O)O

Target: T1, Kras and SOS1 (biotin-tagged human Kras loaded with GDP, His-tagged human SOS1) (Homo sapiens, UniProt P01116, G12D)
T1 construct: made in house; host or cells: E. coli (stated for Kras only)
T1 sequence (P01116 1-188 isoform P01116-2 G12D): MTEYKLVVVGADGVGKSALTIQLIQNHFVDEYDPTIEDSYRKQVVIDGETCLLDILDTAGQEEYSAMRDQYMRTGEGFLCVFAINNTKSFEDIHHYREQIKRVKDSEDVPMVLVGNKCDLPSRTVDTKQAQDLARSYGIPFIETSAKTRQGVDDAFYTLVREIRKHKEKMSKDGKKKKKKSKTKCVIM
Assay: Protein-protein interaction inhibition between Kras and SOS1 (KrasGl2D-SOS PPI) using AlphaScreen
Format: binding
Conditions: AlphaScreen; biotin-tagged human Kras loaded with GDP, His-tagged human SOS1; read-out: KRAS G12D-SOS PPI IC50
In short: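 AlphaScreen format: Ni donor beads capture His-SOS1, streptavidin acceptor beads capture biotinylated Kras (E. coli-expressed, GDP-loaded post-purification). Excite 680 nm, read 520-620 nm.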

Row | Structure (SMILES) | IC50 [nM]
1 | CC[C@H](C)[C@@H]1NC(=O)[C@H](CC(C)C)N(C)C(=O)C[C@@H](C(=O)N2C3CCC2COC3)N(C)C(=O)[C@H](C2CCCCC2)N(C)C(=O)C2(CCCC2)NC(=O)[C@@H]2CC(F)(F)CN2C(=O)[C@H](CCc2ccc(C(F)(F)F)c(Cl)c2)NC(=O)CN(C)C(=O)[C@H](CC2CCCCC2)N(C)C(=O)CN(C)C(=O)CN(C)C1=O [Compound 1179] ([NMeL]I[Sar][Sar][NMeCha][Sar][hPhe(3-Cl-4-CF3)][Pro(4,4-F2)][Ac5c][NMeChg][NMeD]-{3Oxa8azabicyclo(3.2.1)octane}; lactam N-11) | 0.52
2 | CC[C@H](C)[C@@H]1NC(=O)[C@H](CC(F)(F)F)N(C)C(=O)C[C@@H](C(=O)N2CCOCC2)N(C)C(=O)[C@H](C2CCCCC2)N(C)C(=O)C2(CCCC2)NC(=O)[C@@H]2CC(F)(F)CN2C(=O)[C@H](CCc2ccc(C(F)(F)F)c(Cl)c2)NC(=O)CN(C)C(=O)[C@H](Cc2ccc(C(F)(F)F)cc2)N(C)C(=O)CN(C)C(=O)CN(C)C1=O [Compound 1182] ([NMeAbu(4,4,4-F3)]I[Sar][Sar][NMePhe(4-CF3)][Sar][hPhe(3-Cl-4-CF3)][Pro(4,4-F2)][Ac5c][NMeChg][NMeD]-Morpholide; lactam N-11) | 0.56
3 | CC[C@H](C)[C@@H]1NC(=O)[C@H](CC2CCCC2)N(C)C(=O)C[C@@H](C(=O)N2CCCC2)N(C)C(=O)[C@H]([C@@H](C)CC)N(C)C(=O)C2(CCCC2)NC(=O)[C@@H]2CCCN2C(=O)[C@H](CCc2ccc(C(F)(F)F)c(Cl)c2)NC(=O)CN(C)C(=O)[C@H](Cc2ccc(C(F)(F)F)cc2)N(C)C(=O)[C@@H]2CCN2C(=O)[C@H](C)N(C)C1=O [Compound 1183] ([NMeAla(cPent)]I[NMeA][Aze][NMePhe(4-CF3)][Sar][hPhe(3-Cl-4-CF3)]P[Ac5c][NMeI][NMeD]-Pyrrolidide; lactam N-11) | 0.73
4 | C#CC[C@@H]1NC(=O)[C@H](Cc2cccc(I)c2)NC(=O)CN(C)C(=O)[C@H](Cc2ccccc2)N(C)C(=O)CN(C)C(=O)CN(C)C(=O)[C@H]([C@@H](C)CC)NC(=O)[C@H](CC(C)C)N(C)C(=O)C[C@@H](C(=O)N2CCCCC2)N(C)C(=O)[C@H](CC(C)C)NC(=O)C(C)(C)N(C)C1=O [Compound 1184] ([NMeL]I[Sar][Sar][NMeF][Sar][Phe(3-I)][Pra][NMeAib]L[NMeD]-Piperidide; lactam N-11) | 130
5 | CC[C@H](C)[C@@H]1NC(=O)[C@H](CC(C)C)N(C)C(=O)C[C@H]2CCCN2C(=O)[C@H](C2CCCCC2)N(C)C(=O)C2(CCCC2)NC(=O)[C@@H]2CCCN2C(=O)[C@H](CCc2ccc(C(F)(F)F)c(Cl)c2)NC(=O)CN(C)C(=O)[C@H](CC2CCCCC2)N(C)C(=O)CN(C)C(=O)CN(C)C1=O [Compound 1185] (cyclo([Ac5c][NMeChg][d(β3hP)][NMeL]I[Sar][Sar][NMeCha][Sar][hPhe(3-Cl-4-CF3)]P)) | 11
6 | CC[C@H](C)[C@@H]1NC(=O)[C@H](CC(C)C)N(C)C(=O)C[C@@H](C(=O)N2CCCCC2)N(C)C(=O)[C@H](C2CCCCC2)N(C)C(=O)C2(CCCC2)NC(=O)[C@@H]2CCCN2C(=O)[C@H](CCc2ccc(C(F)(F)F)c(Cl)c2)NC(=O)CN(C)C(=O)[C@H](CC2CCCCC2)N(C)C(=O)[C@H](C)N(C)C(=O)CN(C)C1=O [Compound 1186] ([NMeL]I[Sar][NMeA][NMeCha][Sar][hPhe(3-Cl-4-CF3)]P[Ac5c][NMeChg][NMeD]-Piperidide; lactam N-11) | 8.6
7 | CCCC[C@@H]1NC(=O)[C@H](Cc2c(F)cccc2F)NC(=O)CN(C)C(=O)[C@H](Cc2ccc(OC)cc2)N(C)C(=O)[C@@H]2CCN2C(=O)[C@H](C)N(C)C(=O)[C@H]([C@@H](C)CC)NC(=O)[C@H](CC)N(C)C(=O)C[C@@H](C(=O)N2CCCCC2)N(C)C(=O)[C@H](CC(C)C)NC(=O)C(C)(C)N(C)C1=O [Compound 1187] ([NMeAbu]I[NMeA][Aze][NMeY](Me)[Sar][Phe(2,6-F2)][Nle][NMeAib]L[NMeD]-Piperidide; lactam N-11) | 99
8 | CC[C@H](C)[C@@H]1NC(=O)[C@H](CC(C)C)N(C)C(=O)C[C@@H](C(=O)N2CCN(C3COC3)CC2)NC(=O)[C@H]([C@@H](C)CC)N(C)C(=O)C2(CCCC2)NC(=O)[C@@H]2CCCN2C(=O)[C@H](CCc2ccc(C(F)(F)F)c(Cl)c2)NC(=O)CN(C)C(=O)[C@H](CC2CCCCC2)N(C)C(=O)CN(C)C(=O)CN(C)C1=O [Compound 1191] ([NMeL]I[Sar][Sar][NMeCha][Sar][hPhe(3-Cl-4-CF3)]P[Ac5c][NMeI]D-{Piperazinyl(4-(3-oxetanyl))}; lactam N-11) | 6.7
9 | CC[C@H](C)[C@@H]1NC(=O)[C@H](CC(C)C)N(C)C(=O)C[C@@H](C(=O)N2CCCC2)N(C)C(=O)[C@H](C2CCCCC2)N(C)C(=O)C2(CCC2)NC(=O)[C@@H]2CC(F)(F)CN2C(=O)[C@H](CCc2cc(F)c(C(F)(F)F)c(F)c2)NC(=O)CN(C)C(=O)[C@H](CC2CCCCC2)N(C)C(=O)CN(C)C(=O)CN(C)C1=O [Compound 1192] ([NMeL]I[Sar][Sar][NMeCha][Sar][hPhe(3,5-F2-4-CF3)][Pro(4,4-F2)][Ac4c][NMeChg][NMeD]-Pyrrolidide; lactam N-11) | 0.39
